Test results: patent US10251881B2, “Particulate materials” (priority 2002, dated 2019)
Where a name gives a salt, the structure may show the parent alone.

Assays:
Format in all cases: physicochemical
[1] = Flocculation volume of particulate drug suspended in propellant (HFA 134a or HFA 227ea)
Text: Flocculation volume, sometimes referred to as “sedimentation volume”, can be measured by a conventional and relatively simple method. The substance under test, in particulate form, is suspended in the desired fluid vehicle at a suitable concentration. The mixture should be well agitated (typically, simply by shaking) to ensure a uniform dispersion of particles in the fluid at the start of measurement. Immediately after agitation ceases, timing begins. The mixture is left to stand, usually under ambient conditions, and the degree of settling or creaming of the solid observed over time. The flocculation volume of the mixture at a given point in time is the volume of fluid which is still occupied by the particulate dispersion, expressed as a percentage of the total fluid volume. A higher flocculation volume thus indicates less settling/creaming, which indicates improved performance. All references herein to flocculation volumes, unless otherwise stated, are to measurements made at 22° C. […] Measurements were taken at 22° C.

[2] = Particle size of the powders (AEROSIZER, SYMPATEC); conditions: powder; for MMAD: AEROSIZER
Text: Particle sizes may be measured for instance using (a) an AEROSIZER™ time-of-flight instrument (which gives an aerodynamic equivalent particle diameter, MMAD) or (b) a laser diffraction sensor such as the HELOS™ system available from SYMPATEC™ GmbH, Germany (which provides a geometric projection equivalent MMD). MMADs may also be assessed using a cascade impactor. Volume mean diameters may be obtained in both cases using commercially available software packages.

[3] = Particle size of the powders (AEROSIZER, SYMPATEC)
[4] = HFA 134a, 1% w/v, 22° C., after 10 minutes
[5] = HFA 227ea, 1% w/v, 22° C., after 10 minutes
[6] = HFA 134a, averaged over the first 2 minutes
[7] = HFA 227ea, averaged over the first 2 minutes
[8] = HFA 134a, averaged over the first minute
[9] = HFA 227ea, averaged over the first minute
[10] = HFA 227ea, 1% w/v, 22° C., after 5 minutes
[11] = HFA 227ea, 1% w/v, 22° C., after 1 minute

flocculation volume [1, 4] | rate of change in flocculation volume (flocculation rate) [1, 6] | rate of change in flocculation volume (flocculation rate) [1, 7] | MMD ([2]; SYMPATEC) | Compound | also measured
greater than 98% | −0.2 % per minute | −19 % per minute | – | OCc1cc(C(O)CNCCCCCCOCCCCc2ccccc2)ccc1O (single isomer, unassigned) [salmeterol xinafoate sample B, salmeterol xinafoate] | flocculation volume ([1]; HFA 134a, after 24 hours standing): greater than 98%; MMAD [2]: 1.6 μm
– | – | 0 % per minute | 2.3 μm | CCC(=O)O[C@]1(C(=O)SCF)[C@H](C)C[C@H]2[C@@H]3C[C@H](F)C4=CC(=O)C=C[C@]4(C)[C@@]3(F)[C@@H](O)C[C@@]21C [fluticasone propionate sample C, fluticasone propionate] | –
– | −3 % per minute | −11 % per minute | – | OCc1cc(C(O)CNCCCCCCOCCCCc2ccccc2)ccc1O (single isomer, unassigned) [salmeterol xinafoate sample A, Salmeterol xinafoate] | MMAD [2]: 5.3 μm
below 30% | – | – | – | CCC(=O)O[C@]1(C(=O)SCF)[C@H](C)C[C@H]2[C@@H]3C[C@H](F)C4=CC(=O)C=C[C@]4(C)[C@@]3(F)[C@@H](O)C[C@@]21C [fluticasone propionate sample D, fluticasone propionate] | rate of change in flocculation volume (flocculation rate) [1, 8]: −68 % per minute; flocculation volume ([1]; HFA 227ea, 1% w/v, 22° C., after 3 minutes): less than 30%; rate of change in flocculation volume (flocculation rate) [1, 9]: −40 % per minute; MMD ([2]; instrument not stated): 2.0 μm
greater than 70% | −10 % per minute | −5 % per minute | 3.95 μm | Salbutamol sulphate [salbutamol sulphate SEDS® product] | flocculation volume ([1]; HFA 227ea, 1% w/v, 22° C., after 8 minutes): greater than 70%; flocculation volume [1, 5]: greater than 60%

Second part, the compound before the results:

Compound | flocculation volume [1, 4] | rate of change in flocculation volume (flocculation rate) [1, 6] | rate of change in flocculation volume (flocculation rate) [1, 7] | MMD ([2]; SYMPATEC) | also measured
CC(C)C[C@H]1C(=O)N2CCC[C@H]2[C@]2(O)O[C@](NC(=O)[C@@H]3C=C4c5cccc6[nH]c(Br)c(c56)C[C@H]4N(C)C3)(C(C)C)C(=O)N12 [bromocriptine mesylate sample B, Bromocriptine mesylate] | 53% | – | – | – | flocculation volume [1, 5]: 95%
CCCCCCCCCCCCCCCC(=O)OC1CCCn2c1nc(C)c(CCN1CCC(c3noc4cc(F)ccc34)CC1)c2=O (single isomer, unassigned) [risperidone-(9-hydroxy)-palmitate sample C] | greater than 80% | −1 % per minute | −3 % per minute | 3.5 μm | –
CC(C)(C)NCC(O)c1ccc(O)c(CO)c1 (centres unmarked) [salbutamol micronized sample, salbutamol] | – | – | – | – | flocculation volume ([1]; HFA 134a, 1% w/v, 22° C., after 2 minutes): less than 20%; rate of change in flocculation volume (flocculation rate) [1, 8]: −84 % per minute; flocculation volume ([1]; HFA 227ea, 1% w/v, 22° C., after 2 minutes): less than 20%; rate of change in flocculation volume (flocculation rate) [1, 9]: −55 % per minute; MMD ([2]; instrument not stated): 14.5 μm
CCCCCCCCCCCCCCCC(=O)OC1CCCn2c1nc(C)c(CCN1CCC(c3noc4cc(F)ccc34)CC1)c2=O (single isomer, unassigned) [risperidone-(9-hydroxy)-palmitate sample A] | 100% | 0 % per minute | −2.5 % per minute | 2.95 μm | –
CCCCCCCCCCCCCCCC(=O)OC1CCCn2c1nc(C)c(CCN1CCC(c3noc4cc(F)ccc34)CC1)c2=O (single isomer, unassigned) [risperidone-(9-hydroxy)-palmitate sample B] | 100% | 0 % per minute | −3 % per minute | 2.5 μm | –
OCc1cc(C(O)CNCCCCCCOCCCCc2ccccc2)ccc1O (single isomer, unassigned) [salmeterol xinafoate sample C, salmeterol xinafoate] | 30% | – | – | – | flocculation volume ([1]; HFA 134a, 1% w/v, 22° C., after 3 minutes): below 40%; rate of change in flocculation volume (flocculation rate) [1, 8]: −38 % per minute; flocculation volume [1, 10]: below 35%; rate of change in flocculation volume (flocculation rate) [1, 9]: −53 % per minute; MMAD [2]: 1.1 μm
CN1C[C@H](C(=O)N[C@]2(C)O[C@@]3(O)[C@@H]4CCCN4C(=O)[C@H](Cc4ccccc4)N3C2=O)C[C@@H]2c3cccc4[nH]cc(c34)C[C@H]21 [DHE SEDS® product, dihydroergotamine mesylate] | – | – | 0 % per minute | – | flocculation volume [1, 5]: 100%; creaming ([1]; HFA 227ea, after 24 hours standing): no visible creaming; MMAD [2]: 1.25 μm
CCC(=O)O[C@]1(C(=O)SCF)[C@H](C)C[C@H]2[C@@H]3C[C@H](F)C4=CC(=O)C=C[C@]4(C)[C@@]3(F)[C@@H](O)C[C@@]21C [fluticasone propionate sample B, fluticasone propionate] | greater than 90% | −1 % per minute | −0.5 % per minute | 5.6 μm | –
CCC(=O)O[C@]1(C(=O)SCF)[C@H](C)C[C@H]2[C@@H]3C[C@H](F)C4=CC(=O)C=C[C@]4(C)[C@@]3(F)[C@@H](O)C[C@@]21C [fluticasone propionate sample A, fluticasone propionate] | about 50% | −20 % per minute | – | 2.3 μm | –
CCCCCCCCCCCCCCCC(=O)OC1CCCn2c1nc(C)c(CCN1CCC(c3noc4cc(F)ccc34)CC1)c2=O (centres unmarked) [risperidone-(9-hydroxy)-palmitate] | – | – | – | – | flocculation volume ([1]; HFA 134a, 1% w/v, 22° C., after 1 minute): less than 20%; rate of change in flocculation volume (flocculation rate) [1, 8]: −152 % per minute; flocculation volume [1, 11]: less than 20%; rate of change in flocculation volume (flocculation rate) [1, 9]: −117 % per minute; MMD ([2]; instrument not stated): 8.1 μm
CN1C[C@H](C(=O)N[C@]2(C)O[C@@]3(O)[C@@H]4CCCN4C(=O)[C@H](Cc4ccccc4)N3C2=O)C[C@@H]2c3cccc4[nH]cc(c34)C[C@H]21 [crystalline DHE (Examples 9), dihydroergotamine mesylate] | – | – | – | – | VMD ([2]; SYMPATEC): 2.8 μm; bulk powder density [3]: 0.14 g/mL
CN1C[C@H](C(=O)N[C@]2(C)O[C@@]3(O)[C@@H]4CCCN4C(=O)[C@H](Cc4ccccc4)N3C2=O)C[C@@H]2c3cccc4[nH]cc(c34)C[C@H]21 [DHE micronized sample, dihydroergotamine mesylate] | – | – | – | – | flocculation volume [1, 11]: less than 20%; flocculation volume [1, 10]: less than 10%; rate of change in flocculation volume (flocculation rate) [1, 9]: −90 % per minute; MMD ([2]; instrument not stated): 15.1 μm
